Test results taken from publication PMC12136037, “Type II kinase inhibitors that target Parkinson’s disease–associated LRRK2” (Science Advances, 2025).

Columns and labels:
Assay in all cases: 33PanQinase kinome-wide selectivity profile (Reaction Biology)
Type in all cases: biochemical
350 wild-type kinases [1] = target: T1, 350 wild-type kinases (Homo sapiens, UniProt O14965); details: kinase AuroraA, ATP 10 µM, singlicate
T1 construct: purchased Reaction Biology (assay service)
Experimental: (§1) Compound RN341 was tested at two concentrations of 1 and 10 μM against a panel of 350 wild-type kinases in the ^33PanQinase assay. The assay was performed by Reaction Biology (www.reactionbiology.com/services/kinase-assays/kinase-panel-screening/).

350 wild-type kinases [2] = target: T2, 350 wild-type kinases (Homo sapiens, UniProt O60566); details: kinase BUB1B, ATP 0,3 µM, singlicate
T2 construct: purchased Reaction Biology (assay service)
Experimental: as §1

350 wild-type kinases [3] = target: T3, 350 wild-type kinases (Homo sapiens, UniProt P15056); details: kinase BRAF, ATP 1 µM, singlicate
T3 construct: purchased Reaction Biology (assay service)
T3 sequence (P15056 whole entry): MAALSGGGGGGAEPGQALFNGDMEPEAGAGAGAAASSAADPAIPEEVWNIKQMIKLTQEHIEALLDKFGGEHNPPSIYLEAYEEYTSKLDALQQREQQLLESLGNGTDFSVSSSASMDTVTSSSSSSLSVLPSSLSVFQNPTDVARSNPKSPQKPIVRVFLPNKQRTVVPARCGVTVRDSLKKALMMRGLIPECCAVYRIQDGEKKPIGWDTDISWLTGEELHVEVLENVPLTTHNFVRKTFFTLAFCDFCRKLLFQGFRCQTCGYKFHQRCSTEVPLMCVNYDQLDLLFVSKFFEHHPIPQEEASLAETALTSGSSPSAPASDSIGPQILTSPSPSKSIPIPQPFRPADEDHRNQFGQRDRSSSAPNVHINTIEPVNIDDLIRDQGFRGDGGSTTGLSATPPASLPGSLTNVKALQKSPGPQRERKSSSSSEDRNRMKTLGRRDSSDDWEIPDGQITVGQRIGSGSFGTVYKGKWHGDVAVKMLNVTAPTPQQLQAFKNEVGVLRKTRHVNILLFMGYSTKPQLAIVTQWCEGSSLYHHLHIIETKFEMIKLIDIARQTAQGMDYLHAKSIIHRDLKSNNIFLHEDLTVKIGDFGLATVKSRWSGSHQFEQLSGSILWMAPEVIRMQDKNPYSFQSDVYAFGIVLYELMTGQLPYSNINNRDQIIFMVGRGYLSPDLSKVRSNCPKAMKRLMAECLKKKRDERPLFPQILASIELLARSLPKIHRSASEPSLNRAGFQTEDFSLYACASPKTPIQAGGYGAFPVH
Experimental: as §1

350 wild-type kinases [4] = target: T4, 350 wild-type kinases (Homo sapiens, UniProt P19784); details: kinase CK2alpha2, ATP 0,1 µM, singlicate
T4 construct: purchased Reaction Biology (assay service)
T4 sequence (P19784 whole entry): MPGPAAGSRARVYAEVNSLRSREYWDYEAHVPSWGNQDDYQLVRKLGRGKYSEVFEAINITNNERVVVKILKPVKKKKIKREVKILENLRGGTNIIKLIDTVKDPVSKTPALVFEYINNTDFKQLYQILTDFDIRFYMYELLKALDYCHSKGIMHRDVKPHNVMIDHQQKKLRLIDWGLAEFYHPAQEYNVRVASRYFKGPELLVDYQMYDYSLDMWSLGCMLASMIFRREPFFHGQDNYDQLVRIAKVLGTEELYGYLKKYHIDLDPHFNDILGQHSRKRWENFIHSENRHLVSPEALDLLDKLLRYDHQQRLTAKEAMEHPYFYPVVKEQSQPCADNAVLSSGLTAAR
Experimental: as §1

350 wild-type kinases [5] = target: T5, 350 wild-type kinases (Homo sapiens, UniProt P21127); details: kinase CDK11B/CycK, ATP 0,1 µM, singlicate
T5 construct: purchased Reaction Biology (assay service)
Experimental: as §1

350 wild-type kinases [6] = target: T6, 350 wild-type kinases (Homo sapiens, UniProt P31749); details: kinase AKT1, ATP 1 µM, singlicate
T6 construct: purchased Reaction Biology (assay service)
Experimental: as §1

350 wild-type kinases [7] = target: T7, 350 wild-type kinases (Homo sapiens, UniProt P31751); details: kinase AKT2, ATP 10 µM, singlicate
T7 construct: purchased Reaction Biology (assay service)
Experimental: as §1

350 wild-type kinases [8] = target: T8, 350 wild-type kinases (Homo sapiens, UniProt P36894); details: kinase BMPR1A, ATP 3 µM, singlicate
T8 construct: purchased Reaction Biology (assay service)
Experimental: as §1

350 wild-type kinases [9] = target: T9, 350 wild-type kinases (Homo sapiens, UniProt P37023); details: kinase ACVRL1, ATP 1 µM, singlicate
T9 construct: purchased Reaction Biology (assay service)
Experimental: as §1

350 wild-type kinases [10] = target: T10, 350 wild-type kinases (Homo sapiens, UniProt P41279); details: kinase COT, ATP 0,3 µM, singlicate
T10 construct: purchased Reaction Biology (assay service)
Experimental: as §1

350 wild-type kinases [11] = target: T11, 350 wild-type kinases (Homo sapiens, UniProt P42684); details: kinase ABL2, ATP 0,3 µM, singlicate
T11 construct: purchased Reaction Biology (assay service)
T11 sequence (P42684 whole entry): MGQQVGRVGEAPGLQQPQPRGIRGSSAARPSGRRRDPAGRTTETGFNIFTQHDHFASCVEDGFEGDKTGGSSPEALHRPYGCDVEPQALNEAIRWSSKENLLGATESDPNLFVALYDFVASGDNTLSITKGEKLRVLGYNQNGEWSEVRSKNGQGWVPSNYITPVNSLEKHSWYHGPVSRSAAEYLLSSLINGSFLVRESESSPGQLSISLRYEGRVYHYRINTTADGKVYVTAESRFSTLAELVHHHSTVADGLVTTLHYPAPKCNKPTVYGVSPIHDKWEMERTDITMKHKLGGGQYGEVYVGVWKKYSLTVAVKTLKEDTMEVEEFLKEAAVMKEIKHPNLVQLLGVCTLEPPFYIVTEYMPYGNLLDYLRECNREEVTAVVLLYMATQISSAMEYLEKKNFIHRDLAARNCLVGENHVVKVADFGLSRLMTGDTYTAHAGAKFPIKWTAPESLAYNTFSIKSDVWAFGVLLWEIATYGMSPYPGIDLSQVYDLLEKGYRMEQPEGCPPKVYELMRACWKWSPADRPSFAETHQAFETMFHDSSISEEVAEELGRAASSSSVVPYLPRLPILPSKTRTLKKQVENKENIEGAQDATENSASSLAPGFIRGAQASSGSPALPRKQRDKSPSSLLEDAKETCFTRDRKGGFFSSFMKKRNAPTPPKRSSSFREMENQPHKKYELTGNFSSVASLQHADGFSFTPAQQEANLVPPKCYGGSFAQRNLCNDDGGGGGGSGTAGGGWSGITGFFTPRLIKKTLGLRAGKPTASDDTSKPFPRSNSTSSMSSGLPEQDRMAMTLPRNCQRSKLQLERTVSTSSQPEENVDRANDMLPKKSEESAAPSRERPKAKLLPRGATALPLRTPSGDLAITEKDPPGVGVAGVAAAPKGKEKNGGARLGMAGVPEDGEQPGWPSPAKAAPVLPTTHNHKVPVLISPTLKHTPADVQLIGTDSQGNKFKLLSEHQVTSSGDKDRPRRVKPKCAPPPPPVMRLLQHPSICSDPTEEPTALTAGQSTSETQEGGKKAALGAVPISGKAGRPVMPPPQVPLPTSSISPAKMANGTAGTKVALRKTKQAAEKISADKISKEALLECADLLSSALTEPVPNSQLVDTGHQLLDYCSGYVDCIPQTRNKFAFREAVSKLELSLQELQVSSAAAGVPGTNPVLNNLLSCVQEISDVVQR
Experimental: as §1

350 wild-type kinases [12] = target: T12, 350 wild-type kinases (Homo sapiens, UniProt P48729); details: kinase CK1alpha1, ATP 0,3 µM, singlicate
T12 construct: purchased Reaction Biology (assay service)
Experimental: as §1

350 wild-type kinases [13] = target: T13, 350 wild-type kinases (Homo sapiens, UniProt P49761); details: kinase CLK3, ATP 0,3 µM, singlicate
T13 construct: purchased Reaction Biology (assay service)
Experimental: as §1

350 wild-type kinases [14] = target: T14, 350 wild-type kinases (Homo sapiens, UniProt P50750); details: singlicate; for Residual activity (% of control), CDK9/CycK: kinase CDK9/CycK, ATP 1 µM; for Residual activity (% of control), CDK9/CycT1: kinase CDK9/CycT1, ATP 0,3 µM
T14 construct: purchased Reaction Biology (assay service)
T14 sequence (P50750 whole entry): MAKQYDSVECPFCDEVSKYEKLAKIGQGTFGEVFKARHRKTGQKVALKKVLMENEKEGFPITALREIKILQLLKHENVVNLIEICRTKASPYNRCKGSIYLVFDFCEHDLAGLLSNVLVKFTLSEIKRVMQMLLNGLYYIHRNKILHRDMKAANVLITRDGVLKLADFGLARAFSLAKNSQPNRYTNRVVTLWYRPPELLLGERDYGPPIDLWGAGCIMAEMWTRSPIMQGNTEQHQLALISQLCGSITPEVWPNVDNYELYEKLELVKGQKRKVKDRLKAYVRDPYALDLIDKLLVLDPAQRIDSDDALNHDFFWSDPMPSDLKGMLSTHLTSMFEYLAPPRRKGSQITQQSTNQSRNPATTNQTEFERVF
Experimental: as §1

350 wild-type kinases [15] = target: T15, 350 wild-type kinases (Homo sapiens, UniProt P78368); details: kinase CK1gamma2, ATP 0,1 µM, singlicate
T15 construct: purchased Reaction Biology (assay service)
Experimental: as §1

350 wild-type kinases [16] = target: T16, 350 wild-type kinases (Homo sapiens, UniProt Q00534); details: singlicate; for Residual activity (% of control), CDK6/CycD1: kinase CDK6/CycD1, ATP 3 µM; for Residual activity (% of control), CDK6/CycD2: kinase CDK6/CycD2, ATP 10 µM; for Residual activity (% of control), CDK6/CycD3: kinase CDK6/CycD3, ATP 30 µM
T16 construct: purchased Reaction Biology (assay service)
T16 sequence (Q00534 whole entry): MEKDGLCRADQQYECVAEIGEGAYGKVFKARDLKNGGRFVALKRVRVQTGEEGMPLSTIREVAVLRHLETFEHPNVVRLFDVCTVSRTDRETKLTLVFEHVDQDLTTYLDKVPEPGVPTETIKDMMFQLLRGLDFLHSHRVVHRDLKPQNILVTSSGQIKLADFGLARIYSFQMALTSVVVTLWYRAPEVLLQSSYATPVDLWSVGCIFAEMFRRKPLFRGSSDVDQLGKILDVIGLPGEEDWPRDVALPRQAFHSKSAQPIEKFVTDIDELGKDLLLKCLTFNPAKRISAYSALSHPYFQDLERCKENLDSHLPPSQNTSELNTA
Experimental: as §1

350 wild-type kinases [17] = target: T17, 350 wild-type kinases (Homo sapiens, UniProt Q00535); details: singlicate; for Residual activity (% of control), CDK5/p25NCK: kinase CDK5/p25NCK, ATP 0,3 µM; for Residual activity (% of control), CDK5/p35NCK: kinase CDK5/p35NCK, ATP 0,1 µM
T17 construct: purchased Reaction Biology (assay service)
T17 sequence (Q00535 whole entry): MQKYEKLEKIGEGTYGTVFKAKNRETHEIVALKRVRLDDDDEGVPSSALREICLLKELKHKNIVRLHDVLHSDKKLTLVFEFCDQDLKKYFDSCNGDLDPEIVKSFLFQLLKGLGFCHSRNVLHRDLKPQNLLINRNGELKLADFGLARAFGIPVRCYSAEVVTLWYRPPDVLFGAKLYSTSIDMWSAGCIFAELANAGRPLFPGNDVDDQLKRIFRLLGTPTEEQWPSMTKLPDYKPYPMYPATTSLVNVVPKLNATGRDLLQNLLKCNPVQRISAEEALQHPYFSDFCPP
Experimental: as §1

350 wild-type kinases [18] = target: T18, 350 wild-type kinases (Homo sapiens, UniProt Q00537); details: kinase CDK17/p35NCK, ATP 3 µM, singlicate
T18 construct: purchased Reaction Biology (assay service)
Experimental: as §1

350 wild-type kinases [19] = target: T19, 350 wild-type kinases (Homo sapiens, UniProt Q13554); details: kinase CAMK2B, ATP 3 µM, singlicate
T19 construct: purchased Reaction Biology (assay service)
T19 sequence (Q13554 whole entry): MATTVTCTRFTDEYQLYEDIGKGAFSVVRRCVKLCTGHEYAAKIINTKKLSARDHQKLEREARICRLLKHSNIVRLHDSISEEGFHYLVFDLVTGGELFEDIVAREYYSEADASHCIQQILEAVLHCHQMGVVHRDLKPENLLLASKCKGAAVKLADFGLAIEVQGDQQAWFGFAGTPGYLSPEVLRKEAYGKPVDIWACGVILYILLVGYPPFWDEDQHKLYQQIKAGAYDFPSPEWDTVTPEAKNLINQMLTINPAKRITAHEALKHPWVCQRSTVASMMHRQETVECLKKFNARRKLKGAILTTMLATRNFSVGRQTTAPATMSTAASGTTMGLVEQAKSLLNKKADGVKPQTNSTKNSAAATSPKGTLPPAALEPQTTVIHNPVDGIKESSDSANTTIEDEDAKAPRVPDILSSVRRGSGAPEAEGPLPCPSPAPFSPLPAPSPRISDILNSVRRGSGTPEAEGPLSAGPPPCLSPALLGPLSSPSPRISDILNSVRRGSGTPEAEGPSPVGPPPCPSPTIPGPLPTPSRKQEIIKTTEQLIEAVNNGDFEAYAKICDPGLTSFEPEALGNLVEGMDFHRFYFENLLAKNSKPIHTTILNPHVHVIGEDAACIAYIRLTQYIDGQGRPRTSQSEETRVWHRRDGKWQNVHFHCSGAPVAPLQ
Experimental: as §1

350 wild-type kinases [20] = target: T20, 350 wild-type kinases (Homo sapiens, UniProt Q13627); details: kinase DYRK1A, ATP 1 µM, singlicate
T20 construct: purchased Reaction Biology (assay service)
Experimental: as §1

350 wild-type kinases [21] = target: T21, 350 wild-type kinases (Homo sapiens, UniProt Q96RR4); details: kinase CAMKK2, ATP 3 µM, singlicate
T21 construct: purchased Reaction Biology (assay service)
Experimental: as §1

350 wild-type kinases [22] = target: T22, 350 wild-type kinases (Homo sapiens, UniProt Q9HAZ1); details: kinase CLK4, ATP 0,1 µM, singlicate
T22 construct: purchased Reaction Biology (assay service)
Experimental: as §1

350 wild-type kinases [23] = target: T23, 350 wild-type kinases (Homo sapiens, UniProt Q9Y243); details: kinase AKT3, ATP 3 µM, singlicate
T23 construct: purchased Reaction Biology (assay service)
T23 sequence (Q9Y243 whole entry): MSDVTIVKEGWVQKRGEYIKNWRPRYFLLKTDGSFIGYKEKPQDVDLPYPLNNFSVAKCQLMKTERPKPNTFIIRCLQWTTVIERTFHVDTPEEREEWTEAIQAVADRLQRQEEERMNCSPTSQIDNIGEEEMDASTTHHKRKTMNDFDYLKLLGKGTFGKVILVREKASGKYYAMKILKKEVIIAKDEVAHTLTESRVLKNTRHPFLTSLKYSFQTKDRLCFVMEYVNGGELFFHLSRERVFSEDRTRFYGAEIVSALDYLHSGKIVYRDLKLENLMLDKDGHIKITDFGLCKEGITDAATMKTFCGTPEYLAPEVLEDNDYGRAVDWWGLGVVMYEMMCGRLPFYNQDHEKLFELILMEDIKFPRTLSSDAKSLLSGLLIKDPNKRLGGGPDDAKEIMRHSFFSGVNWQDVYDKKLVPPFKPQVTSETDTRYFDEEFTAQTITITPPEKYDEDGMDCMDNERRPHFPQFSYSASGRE
Experimental: as §1

T1 sequence (O14965 whole entry): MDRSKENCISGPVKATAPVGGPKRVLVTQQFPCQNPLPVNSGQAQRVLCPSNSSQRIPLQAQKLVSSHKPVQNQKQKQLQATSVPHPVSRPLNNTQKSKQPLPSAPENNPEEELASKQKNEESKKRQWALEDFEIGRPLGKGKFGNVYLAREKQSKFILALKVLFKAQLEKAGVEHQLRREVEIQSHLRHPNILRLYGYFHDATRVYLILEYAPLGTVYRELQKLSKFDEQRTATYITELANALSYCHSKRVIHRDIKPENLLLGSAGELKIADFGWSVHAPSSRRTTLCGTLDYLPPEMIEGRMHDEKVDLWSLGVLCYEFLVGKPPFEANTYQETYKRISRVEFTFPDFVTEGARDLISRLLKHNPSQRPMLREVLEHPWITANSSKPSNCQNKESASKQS

CCSc1nc(NC)c2c(-c3cccc(NC(=O)Nc4cc(C(C)(C)C)nn4-c4ccc(C)cc4)c3)c[nH]c2n1 [Compound 32]
Residual activity (% of control), AuroraA (350 wild-type kinases [1]; Assay Conc. 1.0E-05 M): 74 % of control
Residual activity (% of control), AuroraA (350 wild-type kinases [1]; Assay Conc. 1.0E-06 M): 96 % of control
Residual activity (% of control), BUB1B (350 wild-type kinases [2]; Assay Conc. 1.0E-05 M): 85 % of control
Residual activity (% of control), BUB1B (350 wild-type kinases [2]; Assay Conc. 1.0E-06 M): 119 % of control
Residual activity (% of control), BRAF (350 wild-type kinases [3]; Assay Conc. 1.0E-05 M): 65 % of control
Residual activity (% of control), BRAF (350 wild-type kinases [3]; Assay Conc. 1.0E-06 M): 98 % of control
Residual activity (% of control), CK2alpha2 (350 wild-type kinases [4]; Assay Conc. 1.0E-05 M): 92 % of control
Residual activity (% of control), CK2alpha2 (350 wild-type kinases [4]; Assay Conc. 1.0E-06 M): 101 % of control
Residual activity (% of control), CDK11B/CycK (350 wild-type kinases [5]; Assay Conc. 1.0E-05 M): 99 % of control
Residual activity (% of control), CDK11B/CycK (350 wild-type kinases [5]; Assay Conc. 1.0E-06 M): 96 % of control
Residual activity (% of control), AKT1 (350 wild-type kinases [6]; Assay Conc. 1.0E-05 M): 91 % of control
Residual activity (% of control), AKT1 (350 wild-type kinases [6]; Assay Conc. 1.0E-06 M): 103 % of control
Residual activity (% of control), AKT2 (350 wild-type kinases [7]; Assay Conc. 1.0E-05 M): 88 % of control
Residual activity (% of control), AKT2 (350 wild-type kinases [7]; Assay Conc. 1.0E-06 M): 117 % of control
Residual activity (% of control), BMPR1A (350 wild-type kinases [8]; Assay Conc. 1.0E-05 M): 85 % of control
Residual activity (% of control), BMPR1A (350 wild-type kinases [8]; Assay Conc. 1.0E-06 M): 97 % of control
Residual activity (% of control), ACVRL1 (350 wild-type kinases [9]; Assay Conc. 1.0E-05 M): 80 % of control
Residual activity (% of control), ACVRL1 (350 wild-type kinases [9]; Assay Conc. 1.0E-06 M): 97 % of control
Residual activity (% of control), COT (350 wild-type kinases [10]; Assay Conc. 1.0E-05 M): 69 % of control
Residual activity (% of control), COT (350 wild-type kinases [10]; Assay Conc. 1.0E-06 M): 96 % of control
Residual activity (% of control), ABL2 (350 wild-type kinases [11]; Assay Conc. 1.0E-05 M): 73 % of control
Residual activity (% of control), ABL2 (350 wild-type kinases [11]; Assay Conc. 1.0E-06 M): 107 % of control
Residual activity (% of control), CK1alpha1 (350 wild-type kinases [12]; Assay Conc. 1.0E-05 M): 98 % of control
Residual activity (% of control), CK1alpha1 (350 wild-type kinases [12]; Assay Conc. 1.0E-06 M): 108 % of control
Residual activity (% of control), CLK3 (350 wild-type kinases [13]; Assay Conc. 1.0E-05 M): 66 % of control
Residual activity (% of control), CLK3 (350 wild-type kinases [13]; Assay Conc. 1.0E-06 M): 90 % of control
Residual activity (% of control), CDK9/CycK (350 wild-type kinases [14]; Assay Conc. 1.0E-05 M): 86 % of control
Residual activity (% of control), CDK9/CycK (350 wild-type kinases [14]; Assay Conc. 1.0E-06 M): 111 % of control
Residual activity (% of control), CDK9/CycT1 (350 wild-type kinases [14]; Assay Conc. 1.0E-05 M): 85 % of control
Residual activity (% of control), CDK9/CycT1 (350 wild-type kinases [14]; Assay Conc. 1.0E-06 M): 106 % of control
Residual activity (% of control), CK1gamma2 (350 wild-type kinases [15]; Assay Conc. 1.0E-05 M): 88 % of control
Residual activity (% of control), CK1gamma2 (350 wild-type kinases [15]; Assay Conc. 1.0E-06 M): 102 % of control
Residual activity (% of control), CDK6/CycD1 (350 wild-type kinases [16]; Assay Conc. 1.0E-05 M): 74 % of control
Residual activity (% of control), CDK6/CycD1 (350 wild-type kinases [16]; Assay Conc. 1.0E-06 M): 127 % of control
Residual activity (% of control), CDK6/CycD2 (350 wild-type kinases [16]; Assay Conc. 1.0E-05 M): 80 % of control
Residual activity (% of control), CDK6/CycD2 (350 wild-type kinases [16]; Assay Conc. 1.0E-06 M): 109 % of control
Residual activity (% of control), CDK6/CycD3 (350 wild-type kinases [16]; Assay Conc. 1.0E-05 M): 73 % of control
Residual activity (% of control), CDK6/CycD3 (350 wild-type kinases [16]; Assay Conc. 1.0E-06 M): 94 % of control
Residual activity (% of control), CDK5/p25NCK (350 wild-type kinases [17]; Assay Conc. 1.0E-05 M): 66 % of control
Residual activity (% of control), CDK5/p25NCK (350 wild-type kinases [17]; Assay Conc. 1.0E-06 M): 95 % of control
Residual activity (% of control), CDK5/p35NCK (350 wild-type kinases [17]; Assay Conc. 1.0E-05 M): 76 % of control
Residual activity (% of control), CDK5/p35NCK (350 wild-type kinases [17]; Assay Conc. 1.0E-06 M): 94 % of control
Residual activity (% of control), CDK17/p35NCK (350 wild-type kinases [18]; Assay Conc. 1.0E-05 M): 53 % of control
Residual activity (% of control), CDK17/p35NCK (350 wild-type kinases [18]; Assay Conc. 1.0E-06 M): 89 % of control
Residual activity (% of control), CAMK2B (350 wild-type kinases [19]; Assay Conc. 1.0E-05 M): 83 % of control
Residual activity (% of control), CAMK2B (350 wild-type kinases [19]; Assay Conc. 1.0E-06 M): 116 % of control
Residual activity (% of control), DYRK1A (350 wild-type kinases [20]; Assay Conc. 1.0E-05 M): 48 % of control
Residual activity (% of control), DYRK1A (350 wild-type kinases [20]; Assay Conc. 1.0E-06 M): 75 % of control
Residual activity (% of control), CAMKK2 (350 wild-type kinases [21]; Assay Conc. 1.0E-05 M): 85 % of control
Residual activity (% of control), CAMKK2 (350 wild-type kinases [21]; Assay Conc. 1.0E-06 M): 119 % of control
Residual activity (% of control), CLK4 (350 wild-type kinases [22]; Assay Conc. 1.0E-05 M): 43 % of control
Residual activity (% of control), CLK4 (350 wild-type kinases [22]; Assay Conc. 1.0E-06 M): 80 % of control
Residual activity (% of control), AKT3 (350 wild-type kinases [23]; Assay Conc. 1.0E-05 M): 113 % of control
Residual activity (% of control), AKT3 (350 wild-type kinases [23]; Assay Conc. 1.0E-06 M): 115 % of control
